# According to patent US7019000B1, “Method of treating a disease condition caused or exacerbated by an HPV” (Institute of Molecular & Cell Biology, priority 1998, dated 2006):
# System: PARP cleavage in HaCat cells
# Assay: Western blot detection of PARP cleavage, HaCat
# Assay type: cell-based, human
# Conditions: 100 μM, one day; HPV-negative HaCat cells (mutant p53)
# Description: 10^6 cells were plated on 10 cm petri-dishes with 10 ml medium and after attachment overnight, treated with 100 μM C16 or 0.5% DMSO for one day. At the time of cell harvest most C16-treated cells were still attached to the plate. Cells were harvested using a rubber policeman and lysed in 10 mM Hepes buffer, pH 7.2, 150 mM NaCl, 0.2% Nonidet-P40 (NP40) and 1 mM PMSF, followed by centrifugation. 20 μg of protein was loaded onto a 12% SDS-polyacrylamide gel, transferred to a nitrocellulose membrane and the membrane blocked with 5% nonfat dry milk in 20 mM Tris-Cl, pH 7.6, 150 mM NaCl, 0.05% Tween-20 overnight at 4° C. The membrane was then probed with primary antibodies against p53 (Santa Cruz Biotechnology, Santa Cruz, Calif.), β-actin (Sigma, St. Louis, Mo.) or PARP (C210, Centre de Research du Chul, Quebec, Canada) and followed by incubation with horseradish peroxidase-conjugated secondary antibody (Pierce, Rockford, Ill.). Finally, the blot was treated with an enhanced chemiluminescent detection substrate (SuperSignal, Pierce) and autoradiographed.
# Increases in P53 expression are known to be associated with programmed cell death (apoptosis) (29), therefore PARP cleavage, a hallmark of apoptosis was examined in C16 treated cells.
smiles,measurement,value
C1CN(SSN2CCOCC2)CCO1 [Compound C16],PARP cleavage,not
